From US9440910B2, “Reference markers for fesoterodine fumarate” (ALEMBIC PHARMACEUTICALS LIMITED, priority 2012, dated 2016)
Where a name gives a salt, the structure may show the parent alone.

How the values were obtained:
Assay type in all cases: physicochemical
[1] = Stability Study of Fesoterodine Fumarate at 25° C.+/−2° C. 60%+/−5% RH
Experimental: (§1) Present inventors carried out the stability study of Fesoterodine Fumarate at different conditions and summarized the table shown below which easily indicate how the impurity at 1.82 RRT is increasingly generated.
Stability Study of Fesoterodine Fumarate at 25° C.+/−2° C. 60%+/−5% RH
(§2) The LC system, used for method development and forced degradation studies and method validation was Waters-Alliance (manufactured by Waters India Ltd) LC system with a photo diode detector. The out put signal was monitored and processed using Empower software system (designed by Waters India) on IBM computer (Digital Equipment Co). • The chromatographic column used was a Waters Aquity BEH C18 100 mm×2.1 mm column with 1.7 μm particles. The mobile phase consists buffer (1.4 g of Disodium hydrogen phosphate in 1000 mL of water pH-8.0 with ortho phosphoric acid), and solvent is acetonitrile. The flow rate of the mobile phase was kept at 0.3 ml/min. beginning with the gradient ratio of mobile phase buffer and solvent 50:50 (v/v), system was continued at the same ratio for 2 minutes. The ratio was changed linearly 30:70(v/v) within 7 minutes and again system was continued at the same ratio for 9 minutes. After 1.5 minutes the initial gradient of 50:50 is for 2.5 minutes to be conditioned far every analysis. The column temperature was maintained at 45° C. and the wavelength was monitored at a wavelength of 220 nm. The injection volume was 3 μL for related substances determination. Acetonitrile was used as diluent during the standard, and test samples preparation.

[2] = Stability Study of Fesoterodine Fumarate at 40° C.+/−2° C. 75%+/−5% RH
Experimental: as §1
Stability Study of Fesoterodine Fumarate at 40° C.+/−2° C. 75%+/−5% RH
as §2

[3] = Stability Study of Fesoterodine Fumarate at 2-8° C.
Experimental: as §1
Stability Study of Fesoterodine Fumarate at 2-8° C.
as §2

[4] = Stability Study of Fesoterodine Fumarate at 30° C.+/−2° C. 65%+/−5% RH
Experimental: as §1
Stability Study of Fesoterodine Fumarate at 30° C.+/−2° C. 65%+/−5% RH
as §2

[5] = Analysis of the stability samples of fesoterodine fumarate; conditions: after 2-6 months stability at 25° C. and above temperature; not observed during initial analysis
Experimental: During analysis of the stability samples of fesoterodine fumarate, after 2-6 months stability at 25° C. and above temperature, the unknown impurity (1.82 RRT) detected which was not observed during initial analysis.
as §2, with “The injection volume was 3 μL for related substances determination. Acetonitrile was used as diluent during the standard, and test samples preparation.” left out

0.29 RRT (Fumaric acid ester) ([1]; 1 month): 0.05%
Dihydroxy impurity (active metabolite) ([1]; 1 month): 0.15%
Purity of Fesoterodine fumarate ([1]; 1 month): 99.52%
0.29 RRT (Fumaric acid ester) ([1]; 2 month): 0.07%
Dihydroxy impurity (active metabolite) ([1]; 2 month): 0.27%
Purity of Fesoterodine fumarate ([1]; 2 month): 99.38%
0.29 RRT (Fumaric acid ester) ([1]; 3 month): 0.08%
1.82 RRT ([1]; 3 month): 0.01%
Dihydroxy impurity (active metabolite) ([1]; 3 month): 0.40%
Purity of Fesoterodine fumarate ([1]; 3 month): 99.25%
0.29 RRT (Fumaric acid ester) ([1]; 4 month): 0.07%
1.82 RRT ([1]; 4 month): 0.02%
Dihydroxy impurity (active metabolite) ([1]; 4 month): 0.53%
Purity of Fesoterodine fumarate ([1]; 4 month): 99.11%
0.29 RRT (Fumaric acid ester) ([1]; 6 month): 0.12%
1.82 RRT ([1]; 6 month): 0.11%
Dihydroxy impurity (active metabolite) ([1]; 6 month): 1.02
Purity of Fesoterodine fumarate ([1]; 6 month): 98.42%
0.29 RRT (Fumaric acid ester) ([1]; Initial): 0.03%
Dihydroxy impurity (active metabolite) ([1]; Initial): 0.07%
Purity of Fesoterodine fumarate ([1]; Initial): 99.69%
0.29 RRT 0.29 RRT (Fumaric acid ester) ([2]; 1 month): 0.10%
1.82 RRT ([2]; 1 month): 0.06%
Dihydroxy impurity (active metabolite) ([2]; 1 month): 0.64%
Purity of Fesoterodine fumarate ([2]; 1 month): 98.92%
0.29 RRT 0.29 RRT (Fumaric acid ester) ([2]; Initial): 0.03%
Dihydroxy impurity (active metabolite) ([2]; Initial): 0.07%
Purity of Fesoterodine fumarate ([2]; Initial): 99.69%
0.29 RRT (Fumaric acid ester) ([3]; 3 month): 0.04%
Dihydroxy impurity (active metabolite) ([3]; 3 month): 0.11%
Purity of Fesoterodine fumarate ([3]; 3 month): 99.61%
0.29 RRT (Fumaric acid ester) ([3]; 6 month): 0.05%
Dihydroxy impurity (active metabolite) ([3]; 6 month): 0.15%
Purity of Fesoterodine fumarate ([3]; 6 month): 99.52%
0.29 RRT (Fumaric acid ester) ([3]; Initial): 0.03%
Dihydroxy impurity (active metabolite) ([3]; Initial): 0.07%
Purity of Fesoterodine fumarate ([3]; Initial): 99.69%
0.29 RRT (Fumaric acid ester) ([4]; 1 month): 0.06%
Dihydroxy impurity (active metabolite) ([4]; 1 month): 0.23%
Purity of Fesoterodine fumarate ([4]; 1 month): 99.43%
0.29 RRT (Fumaric acid ester) ([4]; 2 month): 0.09%
1.82 RRT ([4]; 2 month): 0.02%
Dihydroxy impurity (active metabolite) ([4]; 2 month): 0.45%
Purity of Fesoterodine fumarate ([4]; 2 month): 99.15%
0.29 RRT (Fumaric acid ester) ([4]; 3 month): 0.10%
1.82 RRT ([4]; 3 month): 0.07%
Dihydroxy impurity (active metabolite) ([4]; 3 month): 0.71%
Purity of Fesoterodine fumarate ([4]; 3 month): 98.84%
0.29 RRT (Fumaric acid ester) ([4]; 4 month): 0.09%
1.82 RRT ([4]; 4 month): 0.11%
Dihydroxy impurity (active metabolite) ([4]; 4 month): 0.76%
Purity of Fesoterodine fumarate ([4]; 4 month): 98.74%
0.29 RRT (Fumaric acid ester) ([4]; Initial): 0.03%
Dihydroxy impurity (active metabolite) ([4]; Initial): 0.07%
Purity of Fesoterodine fumarate ([4]; Initial): 99.69%
unknown impurity (1.82 RRT) [5]: detected
SMILES: CC(C)C(=O)Oc1ccc(CO)cc1[C@H](CCN(C(C)C)C(C)C)c1ccccc1 [Fesoterodine Fumarate, [2-[(1R)-3-(Di(propan-2-yl)amino)-1-phenylpropyl]-4-(hydroxymethyl)phenyl]2-methylpropanoate]
